In patent US8088806B2 (Achillion Pharmaceuticals, Inc., priority 2005, dated 2012):

Tested on: HCV replicon
Test: Replicon based assay of HCV replication inhibition (NPT ELISA)
Type: cell-based, Hepatitis C virus
Conditions: Hepatitis C virus, Huh-7, 72 h, Table III; Huh-7 HCV replicon-containing cells, three days; read-out: Activity
Method in brief: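 Huh-7 cells carrying a bicistronic HCV replicon (neo, EMCV-IRES-driven NS3–NS5B) treated overnight after seeding with usually 6 concentrations, 10 to 0.03 micromolar, for three days at 37° C without G418. Replication read as NPT level by captured ELISA; matched-DMSO wells and interferon alpha as controls.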

Row | SMILES | EC50 [µM]
1 | CCCCCCCc1ccc(Nc2nc(Cc3cccc(F)c3)cs2)cc1 [compound 519, 4-(3-fluorobenzyl)-N-(4-heptylphenyl)thiazol-2-amine] | 1 to 10
2 | CCCCCOc1ccc(Nc2nc(-c3cncc(C#N)c3)cs2)cc1C(F)(F)F [compound 520, 5-(2-(3-(trifluoromethyl)-4-(pentyloxy)phenylamino)thiazol-4-yl)pyridine-3-carbonitrile] | < 1
3 | CCCCCOc1ccc(Nc2nc(-c3ccc[n+]([O-])c3)cs2)cc1C(F)(F)F [compound 521] | < 1
4 | CCCCCCCCOc1ccc(Nc2nc(-c3ccc[n+]([O-])c3)cs2)cc1 [compound 522] | < 1
5 | CCCCCCCOc1ccc(Nc2nc(-c3ccc(NC)nc3)cs2)cc1 [compound 523, 5-(2-(4-(heptyloxy)phenylamino)thiazol-4-yl)-N-methylpyridin-2-amine] | < 1
6 | CCCCCCCCc1ccc(Nc2nc(-c3ccc[n+]([O-])c3)cs2)cc1 [compound 524] | < 1
7 | CCCCCCCOc1ccc(Nc2nc(-c3ccc[n+]([O-])c3)cs2)cc1 [compound 525] | < 1
8 | CCCCCCCCOc1ccc(Nc2nc(-c3ccc(F)nc3)cs2)cc1C(F)(F)F [compound 526, N-(3-(trifluoromethyl)-4-(octyloxy)phenyl)-4-(6-fluoropyridin-3-yl)thiazol-2-amine] | < 1
9 | CCCCCOc1ccc(Nc2nc(-c3ccc(F)nc3)cs2)cc1F [compound 527, N-(3-fluoro-4-(pentyloxy)phenyl)-4-(6-fluoropyridin-3-yl)thiazol-2-amine] | < 1
10 | Fc1ccc(-c2csc(Nc3ccc(OCCCC4CCCC4)c(C(F)(F)F)c3)n2)cn1 [compound 528, N-(4-(3-cyclopentylpropoxy)-3-(trifluoromethyl)phenyl)-4-(6-fluoropyridin-3-yl)thiazol-2-amine] | < 1
11 | CCCCCN(C)c1ccc(Nc2nc(-c3ccc(F)nc3)cs2)cc1C(F)(F)F [compound 529, 2-(trifluoromethyl)-N4-(4-(6-fluoropyridin-3-yl)thiazol-2-yl)-N1-methyl-N1-pentylbenzene-1,4-diamine] | < 1
12 | Fc1ccc(-c2csc(Nc3ccc(OCC4CCCCC4)c(F)c3)n2)cn1 [compound 530, N-(4-(cyclohexylmethoxy)-3-fluorophenyl)-4-(6-fluoropyridin-3-yl)thiazol-2-amine] | < 1
13 | CCCC/C=C\CCOc1ccc(Nc2nc(-c3cccnc3)cs2)cc1C(F)(F)F [compound 531, N-(4-((Z)-oct-3-enyloxy)-3-(trifluoromethyl)phenyl)-4-(pyridin-3-yl)thiazol-2-amine] | < 1

Same assay, conditions: Hepatitis C virus, replicon based assay of HCV replication inhibition; Table II; read-out: Activity

Row | SMILES | EC50 [µM]
14 | CCCCCCCCOc1ccc(Nc2nc3c(s2)Cc2ccccc2-3)cc1 [compound 485, N-(4-(octyloxy)phenyl)-8H-indeno[1,2-d]thiazol-2-amine] | < 1
15 | CCCCCOc1ccc(Nc2nc(-c3ccc(F)nc3)cs2)cc1C(F)(F)F [compound 486, N-(3-(trifluoromethyl)-4-(pentyloxy)phenyl)-4-(6-fluoropyridin-3-yl)thiazol-2-amine] | < 1
16 | CCCCCCCOc1ccc(Nc2nc(-c3ccc(F)nc3)cs2)cc1 [compound 487, 4-(6-fluoropyridin-3-yl)-N-(4-(heptyloxy)phenyl)thiazol-2-amine] | < 1
17 | CCCCCCCCOc1ccc(Nc2nc(-c3ccc(F)nc3)cs2)cc1 [compound 488] | < 1
18 | CCCCCCCCN(C)c1ccc(Nc2nc(-c3ccc(F)nc3)cs2)cc1C(F)(F)F [compound 489, 2-(trifluoromethyl)-N^4-(4-(6-fluoropyridin-3-yl)thiazol-2-yl)-N^1-methyl-N^1-octylbenzene-1,4-diamine] | < 1
19 | CCCCCCCCc1ccc(Nc2nc(-c3ccc(F)nc3)cs2)cc1 [compound 490, 4-(6-fluoropyridin-3-yl)-N-(4-octylphenyl)thiazol-2-amine] | < 1
20 | CCCCCCCCOc1ccc(Nc2nc(Cc3ccccc3)cs2)cn1 [compound 491, N-(4-benzylthiazol-2-yl)-6-(octyloxy)pyridin-3-amine] | 1 to 10
21 | CCCCCCCCN(C)c1ccc(Nc2nc(Cc3ccccc3)cs2)cc1C(F)(F)F [compound 492, N^4-(4-benzylthiazol-2-yl)-2-(trifluoromethyl)-N^1-methyl-N^1-octylbenzene-1,4-diamine] | 1 to 10
22 | CCCCCCCCN(C)c1ccc(Nc2nc(Cc3ccccc3)cs2)cc1 [compound 493, N^1-(4-benzylthiazol-2-yl)-N^4-methyl-N^4-octylbenzene-1,4-diamine] | 1 to 10
23 | Fc1ccc(-c2csc(Nc3ccc(OCCCC4CCCC4)c(C(F)(F)F)c3)n2)cc1 [compound 494, N-(4-(3-cyclopentylpropoxy)-3-(trifluoromethyl)phenyl)-4-(4-fluorophenyl)thiazol-2-amine] | < 1
24 | FC(F)(F)c1cc(Nc2nc(-c3cccnc3)cs2)ccc1OCCCC1CCCC1 [compound 495, N-(4-(3-cyclopentylpropoxy)-3-(trifluoromethyl)phenyl)-4-(pyridin-3-yl)thiazol-2-amine] | < 1
25 | Cc1ccc(-c2csc(Nc3ccc(OCCCC4CCCC4)c(C(F)(F)F)c3)n2)cn1 [compound 496, N-(4-(3-cyclopentylpropoxy)-3-(trifluoromethyl)phenyl)-4-(6-methylpyridin-3-yl)thiazol-2-amine] | < 1
26 | CCCCCCCCOc1ccc(Nc2nc(Cc3cccnc3)cs2)cn1 [compound 497, 6-(octyloxy)-N-(4-((pyridin-3-yl)methyl)thiazol-2-yl)pyridin-3-amine] | 1 to 10
27 | CCCCCCCCOc1ccc(Nc2nc(Cc3cccc(F)c3)cs2)cn1 [compound 498, N-(4-(3-fluorobenzyl)thiazol-2-yl)-6-(octyloxy)pyridin-3-amine] | 1 to 10
28 | CCCCCCCCN(C)c1ccc(Nc2nc(Cc3cccc(F)c3)cs2)cc1 [compound 499, N^1-(4-(3-fluorobenzyl)thiazol-2-yl)-N^4-methyl-N^4-octylbenzene-1,4-diamine] | 1 to 10
29 | CCCCCCCCN(C)c1ccc(Nc2nc(Cc3cccnc3)cs2)cc1C(F)(F)F [compound 500, 2-(trifluoromethyl)-N^1-methyl-N^1-octyl-N^4-(4-((pyridin-3-yl)methyl)thiazol-2-yl)benzene-1,4-diamine] | < 1
30 | CCCCCCCCOc1ccc(Nc2nc(Cc3cccnc3)cs2)cc1 [compound 501, N-(4-(octyloxy)phenyl)-4-((pyridin-3-yl)methyl)thiazol-2-amine] | 1 to 10

Row | SMILES | EC50 [µM]
31 | CCCCCCCCN(C)c1ccc(Nc2nc(Cc3cccnc3)cs2)cc1 [compound 503, N^1-methyl-N^1-octyl-N^4-(4-((pyridin-3-yl)methyl)thiazol-2-yl)benzene-1,4-diamine] | > 10
32 | CCCCCCCc1ccc(Nc2nc(Cc3cccnc3)cs2)cc1 [compound 504, N-(4-heptylphenyl)-4-((pyridin-3-yl)methyl)thiazol-2-amine] | 1 to 10
33 | CCCCCOc1ccc(Nc2nc(-c3cncnc3)cs2)cc1C(F)(F)F [compound 505, N-(3-(trifluoromethyl)-4-(pentyloxy)phenyl)-4-(pyrimidin-5-yl)thiazol-2-amine] | < 1
34 | Fc1cc(Nc2nc(-c3cncnc3)cs2)ccc1OCC1CCCCC1 [compound 506, N-(4-(cyclohexylmethoxy)-3-fluorophenyl)-4-(pyrimidin-5-yl)thiazol-2-amine] | < 1
35 | CCCCCCCCOc1ccc(Nc2nc(-c3cncnc3)cs2)cc1 [compound 507, N-(4-(octyloxy)phenyl)-4-(pyrimidin-5-yl)thiazol-2-amine] | < 1
36 | Cc1ccc(-c2csc(Nc3ccc(OCC4CCCCC4)c(F)c3)n2)cn1 [compound 508, N-(4-(cyclohexylmethoxy)-3-fluorophenyl)-4-(6-methylpyridin-3-yl)thiazol-2-amine] | < 1
37 | Fc1ccc(-c2csc(Nc3ccc(OCC4CCCCC4)c(F)c3)n2)cc1 [compound 509, N-(4-(cyclohexylmethoxy)-3-fluorophenyl)-4-(4-fluorophenyl)thiazol-2-amine] | < 1
38 | CCCCCOc1ccc(Nc2nc(-c3ccc(C#N)nc3)cs2)cc1C(F)(F)F [compound 510, 5-(2-(3-(trifluoromethyl)-4-(pentyloxy)phenylamino)thia-zol-4-yl)pyridin-2-carbonitrile] | < 1
39 | N#Cc1ccc(-c2csc(Nc3ccc(OCC4CCCCC4)c(F)c3)n2)cn1 [compound 511, 5-(2-(4-(cyclohexylmethoxy)-3-fluorophenylamino)thiazol-4-yl)pyridine-2-carbonitrile] | > 10
40 | CCCCCCCCOc1ccc(Nc2nc(-c3ccc(C#N)nc3)cs2)cc1 [compound 512, 5-(2-(4-(octyloxy)phenylamino)thia-zol-4-yl)pyridine-2-carbonitrile] | < 1
41 | CCCCCCCCOc1ccc(Nc2nc(Cc3ccccc3)cs2)cc1 [compound 513, 4-benyl-N-(4-(octyloxy)phenyl)thiazol-2-amine] | > 10
42 | CCCCCOc1ccc(Nc2nc(Cc3ccccc3)cs2)cc1C(F)(F)F [compound 514, 4-benzyl-N-(3-(trifluoromethyl)-4-(pentyloxy)phenyl)thiazol-2-amine] | > 10
43 | CCCCCCCc1ccc(Nc2nc(Cc3ccccc3)cs2)cc1 [compound 515, 4-benzyl-N-(4-heptylphenyl)thiazol-2-amine] | > 10
44 | CCCCCCCCOc1ccc(Nc2nc(Cc3cccc(F)c3)cs2)cc1 [compound 516, 4-(3-fluorobenzyl)-N-(4-(octyloxy)phenyl)thiazol-2-amine] | > 10
45 | CCCCCOc1ccc(Nc2nc(Cc3cccc(F)c3)cs2)cc1C(F)(F)F [compound 517, 4-(3-fluorobenzyl)-N-(3-(trifluoromethyl)-4-(pentyloxy)phenyl)thiazol-2-amine] | 1 to 10
46 | CCCCCCCCN(C)c1ccc(Nc2nc(Cc3cccc(F)c3)cs2)cc1C(F)(F)F [compound 518, N^4-(4-(3-fluorobenzyl)thiazol-2-yl)-2-(trifluoromethyl)-N^1-methyl-N^1-octylbenzene-1,4-diamine] | 1 to 10
